In PubChem BioAssay (NCI):
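Values below derive from 48-hour exposures of cells grown in 96-well plates, with endpoints linearly interpolated between the two concentrations bracketing the appropriate inhibition level. TGI: concentration producing complete growth inhibition.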

What was measured:
RXF-631 renal = experiment: NCI tumour cell line growth inhibition, 48 h
P388/ADR leukemia = experiment: NCI tumour cell line growth inhibition, 48 h

NC1=NS(=O)(=O)Nc2nc(-c3ccc(Cl)cc3)c(-c3ccc(Cl)cc3)nc21
TGI (RXF-631 renal): > 100 µM

COc1ccc(/C(Cl)=C(\C=O)c2ccc(F)cc2)cc1OC
TGI (RXF-631 renal): 49.2 µM

Nc1ccc2[nH]c3c(-c4ccccc4)nccc3c2c1
TGI (P388/ADR leukemia): > 100 µM

O=C(NC(Cc1ccc(I)cc1)C(=O)O)c1ccc(Br)cc1 (centres undefined)
TGI (P388/ADR leukemia): > 31.6 µM
